# Source: ChEMBL document CHEMBL1201862, “PubChem BioAssay data set” (2004)
# Activity calls are given as the source filed them. No stated cut-off is given here; in the data, actives have a measured IC50 and inactives only a lower limit.
# Target: Envelope glycoprotein gp160 (Human immunodeficiency virus 1, UniProt Q6QLK5)
# Assay: cell-free HIV fusion peptide-binding blockers – biochemical, uHTS, fluorescence dequenching, […] (AID 1986)
# Envelope glycoprotein gp160, sequence (Q6QLK5 whole entry, the tested form may be a part): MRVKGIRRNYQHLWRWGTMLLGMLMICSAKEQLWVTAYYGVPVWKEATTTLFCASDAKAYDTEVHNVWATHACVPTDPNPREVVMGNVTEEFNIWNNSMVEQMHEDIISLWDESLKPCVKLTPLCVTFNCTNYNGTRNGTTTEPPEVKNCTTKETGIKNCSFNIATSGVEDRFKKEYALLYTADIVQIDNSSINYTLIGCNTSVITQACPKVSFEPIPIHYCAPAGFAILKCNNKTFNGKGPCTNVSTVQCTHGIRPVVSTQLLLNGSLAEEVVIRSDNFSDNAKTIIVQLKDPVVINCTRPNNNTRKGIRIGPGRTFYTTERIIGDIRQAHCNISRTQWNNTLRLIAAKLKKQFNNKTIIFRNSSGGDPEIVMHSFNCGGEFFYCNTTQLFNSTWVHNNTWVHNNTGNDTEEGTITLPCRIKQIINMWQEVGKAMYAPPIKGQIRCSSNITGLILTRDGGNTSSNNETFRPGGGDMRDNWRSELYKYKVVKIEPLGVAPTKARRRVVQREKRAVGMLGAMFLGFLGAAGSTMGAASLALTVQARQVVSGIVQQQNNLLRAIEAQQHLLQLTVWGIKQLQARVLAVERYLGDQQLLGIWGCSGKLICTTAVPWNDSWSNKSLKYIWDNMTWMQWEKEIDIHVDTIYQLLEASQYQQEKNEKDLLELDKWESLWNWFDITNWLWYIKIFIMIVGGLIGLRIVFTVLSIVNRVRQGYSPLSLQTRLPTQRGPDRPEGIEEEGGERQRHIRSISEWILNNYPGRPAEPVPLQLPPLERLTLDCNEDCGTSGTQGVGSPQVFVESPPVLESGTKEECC
compound,measurement,value
CCOc1cc(/C=C2/C(=N)N3C(=NC2=O)SN=C3S(=O)(=O)CC)ccc1OC(=O)c1ccco1,IC50,19.3 µM (active)
